In US20240150356A1, “Pyrimidine amide compounds and use thereof” (ALPHALA CO., LTD., priority 2019, published 2024):
Read-outs that look alike come from different tables or passages of the source.

Tested on: Hep3B cells (hepatocellular carcinoma cell line)
Test: In vitro MTS cell viability assay (NCI-60 methodology), Hep3B
Type: cell-based
Settings: Homo sapiens, 48 h, 2 days drug incubation, 50% reduction vs time zero, read-out: Hep3B LC50
Procedure: The cell viability measurement is based on the NCI-60 screening methodology (Nat. Rev. Cancer 6, 813-823, 2006). Briefly, cells are inoculated into 96-well plates at the optimal plating density. After 24 h, one of the two plates for Hep3B cell line is processed to determine a time zero cell viability (Tz) by MTS assay (Promega). Compounds are added over a 2-fold serial dilution to provide a total five drug concentrations plus DMSO control. Plates are incubated for a further 2 days, then measured cell viability by MTS assay [control growth (C) and test growth in the presence of drug at the five concentration levels (Ti)]. The LC50 is calculated from [(Ti−Tz)/Tz]×100=−50, which is the drug concentration resulting in a 50% reduction at the end of the drug treatment as compared to that at the beginning.
The compounds prepared in Tables 1-10 were tested in three in vitro assays, and the results are shown in Tables 1-10 for Hep3B and Table 11 for SW480 and NCI-H460 shown below. Herein, Hep3B refers to hepatocellular carcinoma cell line, SW480 refers to colon adenocarcinoma cell line, and NCI-H460 refers to human lung cancer cell line.
Shown in following Tables 1 to 10 are the structures and in vitro activities of exemplary compounds of formula (I).

For `C[C@@H]1CN(c2nc(NC(=O)c3ccc([N+](=O)[O-])s3)c3cnn(-c4ccccc4)c3n2)C[C@H](C)O1` [Compound 5-8, N-(6-((2S,6R)-2,6-dimethylmorpholino)-1-phenyl-1H-pyrazolo[3,4-d]pyrimidin-4-yl)-5-nitrothiophene-2-carboxamide], the LC50 (Table 5, MTS) was 1710 nM.
For `CC1(C)CC=C(c2nc(NC(=O)c3ccc([N+](=O)[O-])s3)c3cnn(-c4ccc(F)cc4)c3n2)CC1` [Compound 6-144, N-(6-(4,4-dimethylcyclohex-1-en-1-yl)-1-(4-fluorophenyl)-1H-pyrazolo[3,4-d]pyrimidin-4-yl)-5-nitrothiophene-2-carboxamide], the LC50 (Table 6, MTS) was 550 nM.
Work on `O=C(Nc1nc(-c2ccc(OCC(F)(F)F)nc2)nc2c1cnn2C1CCCCC1)c1ccc([N+](=O)[O-])s1` [Compound 10-49, N-(1-cyclohexyl-6-(6-(2,2,2-trifluoroethoxy)pyridin-3-yl)-1H-pyrazolo[3,4-d]pyrimidin-4-yl)-5-nitrothiophene-2-carboxamide] yielded an LC50 (Table 10, MTS) of 630 nM.
`O=C(Nc1nc(-c2ccc(OC(F)(F)F)cc2)nc2c1cnn2CCO)c1ccc([N+](=O)[O-])s1` [Compound 1-28, N-(1-(2-hydroxyethyl)-6-(4-(trifluoromethoxy)phenyl)-1H-pyrazolo[3,4-d]pyrimidin-4-yl)-5-nitrothiophene-2-carboxamide] gave an LC50 (Table 1, MTS) of 4030 nM.
In the case of `CC(C)N1CC[C@H](n2ncc3c(NC(=O)c4ccc([N+](=O)[O-])s4)nc(-c4ccc(F)nc4)nc32)C1` [Compound 8-1, (S)—N-(6-(6-fluoropyridin-3-yl)-1-(1-isopropylpyrrolidin-3-yl)-1H-pyrazolo[3,4-d]pyrimidin-4-yl)-5-nitrothiophene-2-carboxamide], the LC50 (Table 8, MTS) is reported as greater than 3000 nM.
For `O=C(Nc1nc(-c2ccco2)nc2c1cnn2C1CCCCC1)c1ccc([N+](=O)[O-])s1` [Compound 10-4, N-(1-cyclohexyl-6-(furan-2-yl)-1H-pyrazolo[3,4-d]pyrimidin-4-yl)-5-nitrothiophene-2-carboxamide], the LC50 (Table 10, MTS) was 1190 nM.
In the case of `O=C(Nc1nc(-c2ccc(C(F)(F)F)cc2)nc2c1cnn2-c1ccc(F)cc1)c1ccc([N+](=O)[O-])s1` [Compound 6-122, N-(1-(4-fluorophenyl)-6-(4-(trifluoromethyl)phenyl)-1H-pyrazolo[3,4-d]pyrimidin-4-yl)-5-nitrothiophene-2-carboxamide], the LC50 (Table 6, MTS) is reported as 280 nM.
With `O=C(Nc1nc(-c2ccc(Cl)cc2)nc2c1cnn2C1CCN(C(=O)OCCCC(F)(F)F)CC1)c1ccc([N+](=O)[O-])s1` [Compound 9-9] the LC50 (Table 9, MTS) was 1070 nM.
For `Cc1ccc(-c2nc(NC(=O)c3ccc([N+](=O)[O-])s3)c3cnn(-c4ccccc4)c3n2)cn1` [Compound 5-34, N-(6-(6-methylpyridin-3-yl)-1-phenyl-1H-pyrazolo[3,4-d]pyrimidin-4-yl)-5-nitrothiophene-2-carboxamide], the LC50 (Table 5, MTS) was 850 nM.
With `CCOCCOCCOC(=O)N1CCC(n2ncc3c(NC(=O)c4ccc([N+](=O)[O-])s4)nc(-c4ccc(Cl)cc4)nc32)CC1` [Compound 9-11, 2-(2-ethoxyethoxy)ethyl 4-(6-(4-chlorophenyl)-4-(5-nitrothiophene-2-carboxamido)-1H-pyrazolo[3,4-d]pyrimidin-1-yl)piperidine-1-carboxylate] the LC50 (Table 9, MTS) was greater than 1250 nM.
Work on `O=C(Nc1nc(-c2ccc(Cl)c(F)c2)nc2c(-c3ccccc3)csc12)c1ccc([N+](=O)[O-])s1` [Compound 4-16, N-(2-(4-chloro-3-fluorophenyl)-7-phenylthieno[3,2-d]pyrimidin-4-yl)-5-nitrothiophene-2-carboxamide] yielded an LC50 (Table 4, MTS) of 560 nM.
Compound `CCn1cc2nc(-c3ccc(C(C)(C)C)cc3)nc(NC(=O)c3ccc([N+](=O)[O-])s3)c2c1` [Compound 3-11, N-(2-(4-(tert-butyl)phenyl)-6-ethyl-6H-pyrrolo[3,4-d]pyrimidin-4-yl)-5-nitrothiophene-2-carboxamide] has an LC50 (Table 3, MTS) of 7640 nM.
For `C=CC(=O)N1CCC(c2nc(NC(=O)c3ccc([N+](=O)[O-])s3)c3cnn(-c4ccccc4)c3n2)CC1` [Compound 5-2, N-(6-(1-acryloylpiperidin-4-yl)-1-phenyl-1H-pyrazolo[3,4-d]pyrimidin-4-yl)-5-nitrothiophene-2-carboxamide], the LC50 (Table 5, MTS) was 2470 nM.
